Results from US12018033B2, “Inhibitors of protein arginine deiminases” (Forward Therapeutics, Inc., priority 2018, dated 2024).

molecular target: T1, Recombinant human PAD4 (2-663) (Homo sapiens, UniProt Q9UM07); experiment: PAD4 Inhibition Assay; type: biochemical; conditions: 60 mins pre-incubation at RT; substrate BAEE with CaCl2; fluorescent signal (λex 405/λem 460)
T1 construct: Recombinant human PAD4 (2-663) was expressed in E. coli; made in house; host or cells: E. coli
Description: Protein: Recombinant human PAD4 (2-663) was expressed in E. coli as an N-terminal Strep-tag and C-terminal 6-his tag fusion protein. Protein was purified using Strep-tactin resin followed by size exclusion chromatography. Tags were not removed during purification. Activity of the protein was determined using ammonia quantification assay.
PAD4 enzyme (10 μL) was diluted to concentration of 75 nM in assay buffer A (100 mM HEPES, pH 8, 50 mM NaCl, 2 mM DTT, 0.6 mg/mL BSA and 0.5% DMSO) and added to wells containing 10 μL of various concentrations of test compound, or DMSO vehicle in buffer A with 1.5% final DMSO concentration in a Corning high volume 384 well black plate. Following 60 mins pre-incubation at RT with gentle shaking, the reaction was initiated by the addition of 10 μL of substrate buffer containing 3 mM N-α-benzoyl-L-arginine ethyl ester (BAEE) and 600 μM CaCl2) in assay buffer A. The reaction was stopped after 60 mins with the addition of 15 μL stop/detection buffer containing 7.5 mM phthalaldehyde, 50 mM EDTA and 7.5 mM DTT in assay buffer A. Quenched reactions were incubated at RT for 45 mins before measuring fluorescent signal (λex 405/λem 460) on an Envision plate reader (Perkin Elmer Life Sciences, Waltham, Mass., USA).

T1 sequence (Q9UM07 2-663): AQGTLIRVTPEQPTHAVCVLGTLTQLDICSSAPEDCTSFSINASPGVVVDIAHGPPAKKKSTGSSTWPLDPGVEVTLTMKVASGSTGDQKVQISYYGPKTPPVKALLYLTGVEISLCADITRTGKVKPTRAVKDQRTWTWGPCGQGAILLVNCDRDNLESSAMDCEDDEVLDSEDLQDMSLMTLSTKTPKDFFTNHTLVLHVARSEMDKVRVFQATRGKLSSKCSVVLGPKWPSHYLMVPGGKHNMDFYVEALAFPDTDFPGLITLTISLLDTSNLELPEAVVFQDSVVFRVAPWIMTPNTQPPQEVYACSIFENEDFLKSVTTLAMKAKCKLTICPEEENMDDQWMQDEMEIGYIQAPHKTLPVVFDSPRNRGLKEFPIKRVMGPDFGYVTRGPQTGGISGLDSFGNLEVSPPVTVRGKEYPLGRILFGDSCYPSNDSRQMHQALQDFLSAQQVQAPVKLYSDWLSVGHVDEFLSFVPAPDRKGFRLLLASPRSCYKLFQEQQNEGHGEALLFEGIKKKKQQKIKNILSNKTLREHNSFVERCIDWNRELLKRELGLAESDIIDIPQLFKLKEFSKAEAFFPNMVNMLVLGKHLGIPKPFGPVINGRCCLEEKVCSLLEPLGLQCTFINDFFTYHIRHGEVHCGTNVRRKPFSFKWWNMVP

Compound	IC50
CC1(NC(=O)c2cc3cc(Cl)c(F)c(F)c3[nH]2)CNC1 [Example 53, 5-chloro-6,7-difluoro-N-(3-methylazetidin-3-yl)-1H-indole-2-carboxamide]	10 to 100 µM
O=C(N[C@@H]1CNC[C@H]1O)c1cc2cc(Cl)c(F)c(F)c2[nH]1 [Example 15, 5-Chloro-6,7-difluoro-N-((3R,4R)-4-hydroxypyrrolidin-3-yl)-1H-indole-2-carboxamide]	1 to 10 µM
N[C@@H]1CCN(C(=O)c2cc3cc(Br)c(F)c(F)c3[nH]2)C1 [Example 5, (R)-(3-Aminopyrrolidin-1-yl)(5-bromo-6,7-difluoro-1H-indol-2-yl)methanone]	≤ 1 µM
C[C@@H]1CNC[C@@H]1NC(=O)c1cc2cc(Cl)c(F)c(F)c2[nH]1 [Example 20, 5-Chloro-6,7-difluoro-N-((3R,4R)-4-methylpyrrolidin-3-yl)-1H-indole-2-carboxamide]	≤ 1 µM
N[C@@H]1CCN(C(=O)c2cc3cc(Cl)cc(Br)c3[nH]2)C1 [Example 47, (R)-(3-Aminopyrrolidin-1-yl)(7-bromo-5-chloro-1H-indol-2-yl)methanone]	10 to 100 µM
N[C@H]1CN(C(=O)c2cc3cc(Cl)c(F)c(F)c3[nH]2)C[C@@H]1O [Example 22, ((3S,4S)-3-Amino-4-hydroxypyrrolidin-1-yl)(5-chloro-6,7-difluoro-1H-indol-2-yl)methanone]	≤ 1 µM
O=C(c1cc2cc(Cl)c(F)c(F)c2[nH]1)N1CC2(CNC2)C1 [Example 60, (5-chloro-6,7-difluoro-1H-indol-2-yl)(2,6-diazaspiro[3.3]heptan-2-yl)methanone]	10 to 100 µM
CN(C(=O)c1cc2cc(Cl)c(F)c(F)c2[nH]1)C1CNC1 [Example 52, N-(azetidin-3-yl)-5-chloro-6,7-difluoro-N-methyl-1H-indole-2-carboxamide]	10 to 100 µM
CC(C)C[C@@H](CN)NC(=O)c1cc2cc(Cl)c(F)c(F)c2[nH]1 [Example 19, (S)-N-(1-Amino-4-methylpentan-2-yl)-5-chloro-6,7-difluoro-1H-indole-2-carboxamide]	10 to 100 µM
O=C(N[C@@H]1CCCNC1)c1cc2cc(Cl)c(F)c(F)c2[nH]1 [Example 40, (R)-5-Chloro-6,7-difluoro-N-(piperidin-3-yl)-1H-indole-2-carboxamide]	10 to 100 µM
O=C(N[C@H]1CCCNC1)c1cc2cc(Cl)c(F)c(F)c2[nH]1 [Example 39, (S)-5-Chloro-6,7-difluoro-N-(piperidin-3-yl)-1H-indole-2-carboxamide]	10 to 100 µM
N[C@H]1CN(C(=O)c2cc3cc(Cl)c(F)c(F)c3[nH]2)C[C@H]1F [Example 7, ((3S,4R)-3-Amino-4-fluoro-pyrrolidin-1-yl)-(5-chloro-6,7-difluoro-1H-indol-2-yl)-methanone]	10 to 100 µM
O=C(NC[C@H]1CCNC1)c1cc2cc(Cl)c(F)c(F)c2[nH]1 [Example 62, (S)-5-chloro-6,7-difluoro-N-(pyrrolidin-3-ylmethyl)-1H-indole-2-carboxamide]	10 to 100 µM
CO[C@H]1CN(C(=O)c2cc3cc(Cl)c(F)c(F)c3[nH]2)C[C@@H]1N [Example 35, ((3S,4S)-3-Amino-4-methoxypyrrolidin-1-yl)(5-chloro-6,7-difluoro-1H-indol-2-yl)methanone]	> 100 µM
CN(C(=O)c1cc2cc(Cl)c(F)c(F)c2[nH]1)[C@H]1CCNC1 [Example 51, (S)-5-chloro-6,7-difluoro-N-methyl-N-(pyrrolidin-3-yl)-1H-indole-2-carboxamide]	10 to 100 µM
N[C@@H]1CCN(C(=O)c2cc3cc(Cl)cc(F)c3[nH]2)C1 [Example 2, (R)-(3-Aminopyrrolidin-1-yl)(5-chloro-7-fluoro-1H-indol-2-yl)methanone]	≤ 1 µM
NC1CN(C(=O)c2cc3cc(Cl)c(F)c(F)c3[nH]2)C1 [Example 24, (3-Aminoazetidin-1-yl)(5-chloro-6,7-difluoro-1H-indol-2-yl)methanone]	1 to 10 µM
NCC(NC(=O)c1cc2cc(Cl)c(F)c(F)c2[nH]1)C1CC1 (stereo not drawn) [Example 11, N-(2-Amino-1-cyclopropylethyl)-5-chloro-6,7-difluoro-1H-indole-2-carboxamide]	10 to 100 µM
N[C@H]1CNC[C@@H]1NC(=O)c1cc2cc(Cl)c(F)c(F)c2[nH]1 [Example 30, N-((3S,4S)-4-Aminopyrrolidin-3-yl)-5-chloro-6,7-difluoro-1H-indole-2-carboxamide]	10 to 100 µM
C[C@@H]1CNC[C@H]1NC(=O)c1cc2cc(Cl)c(F)c(F)c2[nH]1 [Example 13, 5-Chloro-6,7-difluoro-N-((3S,4R)-4-methylpyrrolidin-3-yl)-1H-indole-2-carboxamide]	1 to 10 µM

Compound	IC50
N[C@@H]1CCN(C(=O)c2cc3cc(F)c(Br)c(F)c3[nH]2)C1 [Example 6, (R)-(3-Aminopyrrolidin-1-yl)(6-bromo-5,7-difluoro-1H-indol-2-yl)methanone]	10 to 100 µM
CO[C@@H]1CNC[C@H]1NC(=O)c1cc2cc(Cl)c(F)c(F)c2[nH]1 [Example 34, 5-Chloro-6,7-difluoro-N-((3R,4R)-4-methoxypyrrolidin-3-yl)-1H-indole-2-carboxamide]	10 to 100 µM
N[C@@H]1CCN(C(=O)c2cc3cc(F)c(F)cc3[nH]2)C1 [Example 50, (R)-(3-Aminopyrrolidin-1-yl)(5,6-difluoro-1H-indol-2-yl)methanone]	10 to 100 µM
O=C(c1cc2cc(Cl)c(F)c(F)c2[nH]1)N1C[C@H]2CNC[C@H]2C1 [Example 59, (5-chloro-6,7-difluoro-1H-indol-2-yl)((3aR,6aS)-hexahydropyrrolo[3,4-c]pyrrol-2(1H)-yl)methanone]	10 to 100 µM
C[C@H]1CCNC[C@@H]1NC(=O)c1cc2cc(Cl)c(F)c(F)c2[nH]1 [Example 41, 5-Chloro-6,7-difluoro-N-((3R,4S)-4-methylpiperidin-3-yl)-1H-indole-2-carboxamide]	10 to 100 µM
O=C(c1cc2cc(Cl)c(F)c(F)c2[nH]1)N1CC[C@@H]2CNC[C@@H]21 [Example 58, (5-chloro-6,7-difluoro-1H-indol-2-yl)((3aR,6aR)-hexahydropyrrolo[3,4-b]pyrrol-1(2H)-yl)methanone]	10 to 100 µM
N[C@@H]1CCN(C(=O)c2cc3cc(Cl)c(F)c(F)c3[nH]2)C1 [Example 1, (R)-(3-Aminopyrrolidin-1-yl)(5-chloro-6,7-difluoro-1H-indol-2-yl)methanone]	≤ 1 µM
O=C(NC1CNC1)c1cc2cc(Cl)c(F)c(F)c2[nH]1 [Example 23, N-(Azetidin-3-yl)-5-chloro-6,7-difluoro-1H-indole-2-carboxamide]	≤ 1 µM
O=C(c1cc2cc(Cl)c(F)c(F)c2[nH]1)N1C[C@H]2CNC[C@H]21 [Example 56, (1R,5S)-3,6-diazabicyclo[3.2.0]heptan-6-yl(5-chloro-6,7-difluoro-1H-indol-2-yl)methanone]	1 to 10 µM
O=C(N[C@@H]1CCNC1)c1cc2cc(Cl)c(F)c(F)c2[nH]1 [Example 25, (R)-5-Chloro-6,7-difluoro-N-(pyrrolidin-3-yl)-1H-indole-2-carboxamide]	10 to 100 µM
N[C@H]1CN(C(=O)c2cc3cc(Cl)c(F)c(F)c3[nH]2)C[C@@H]1N [Example 29, (5-Chloro-6,7-difluoro-1H-indol-2-yl)((3S,4S)-3,4-diaminopyrrolidin-1-yl)methanone]	1 to 10 µM
CO[C@H]1CNC[C@@H]1NC(=O)c1cc2cc(Cl)c(F)c(F)c2[nH]1 [Example 33, 5-Chloro-6,7-difluoro-N-((3S,4S)-4-methoxypyrrolidin-3-yl)-1H-indole-2-carboxamide]	10 to 100 µM
O=C(N[C@H]1CNC[C@@H]1O)c1cc2cc(Cl)c(F)c(F)c2[nH]1 [Example 18, 5-Chloro-6,7-difluoro-N-((3S,4S)-4-hydroxypyrrolidin-3-yl)-1H-indole-2-carboxamide]	10 to 100 µM
C[C@@H]1NC[C@@H]1NC(=O)c1cc2cc(Cl)c(F)c(F)c2[nH]1 [Example 54, 5-chloro-6,7-difluoro-N-((2S,3S)-2-methylazetidin-3-yl)-1H-indole-2-carboxamide]	1 to 10 µM
O=C(c1cc2cc(Cl)c(F)c(F)c2[nH]1)N1CC[C@H]2CNC[C@H]21 [Example 57, (5-chloro-6,7-difluoro-1H-indol-2-yl)((3aS,6aS)-hexahydropyrrolo[3,4-b]pyrrol-1(2H)-yl)methanone]	1 to 10 µM
O=C(c1cc2cc(Cl)c(F)c(F)c2[nH]1)N1CC2(CCNC2)C1 [Example 61, (5-chloro-6,7-difluoro-1H-indol-2-yl)(2,6-diazaspiro[3.4]octan-2-yl)methanone]	10 to 100 µM
N[C@H]1CN(C(=O)c2cc3cc(Cl)c(F)c(F)c3[nH]2)C[C@@H]1F [Example 37, ((3S,4S)-3-Amino-4-fluoropyrrolidin-1-yl)(5-chloro-6,7-difluoro-1H-indol-2-yl)methanone]	1 to 10 µM
C[C@H]1NC[C@H]1NC(=O)c1cc2cc(Cl)c(F)c(F)c2[nH]1 [Example 55, 5-chloro-6,7-difluoro-N-((2R,3R)-2-methylazetidin-3-yl)-1H-indole-2-carboxamide]	1 to 10 µM
O=C(N[C@H]1CNC[C@H]1O)c1cc2cc(Cl)c(F)c(F)c2[nH]1 [Example 17, 5-Chloro-6,7-difluoro-N-((3S,4R)-4-hydroxypyrrolidin-3-yl)-1H-indole-2-carboxamide]	10 to 100 µM
